Patent US11780845B2 (Relay Therapeutics, Inc., priority 2019, dated 2023)

Experiments:
[1] = test system: SNU-16; assay: Cell SNU-16 assay; format: cell-based
[2] = molecular target: FGFR2 (Homo sapiens (Human), UniProt P21802); assay: Biochemical FGFR2 Caliper assay
[3] = Homo sapiens, SNU-16, SNU-16 cells

FGFR2, sequence (P21802 22-821): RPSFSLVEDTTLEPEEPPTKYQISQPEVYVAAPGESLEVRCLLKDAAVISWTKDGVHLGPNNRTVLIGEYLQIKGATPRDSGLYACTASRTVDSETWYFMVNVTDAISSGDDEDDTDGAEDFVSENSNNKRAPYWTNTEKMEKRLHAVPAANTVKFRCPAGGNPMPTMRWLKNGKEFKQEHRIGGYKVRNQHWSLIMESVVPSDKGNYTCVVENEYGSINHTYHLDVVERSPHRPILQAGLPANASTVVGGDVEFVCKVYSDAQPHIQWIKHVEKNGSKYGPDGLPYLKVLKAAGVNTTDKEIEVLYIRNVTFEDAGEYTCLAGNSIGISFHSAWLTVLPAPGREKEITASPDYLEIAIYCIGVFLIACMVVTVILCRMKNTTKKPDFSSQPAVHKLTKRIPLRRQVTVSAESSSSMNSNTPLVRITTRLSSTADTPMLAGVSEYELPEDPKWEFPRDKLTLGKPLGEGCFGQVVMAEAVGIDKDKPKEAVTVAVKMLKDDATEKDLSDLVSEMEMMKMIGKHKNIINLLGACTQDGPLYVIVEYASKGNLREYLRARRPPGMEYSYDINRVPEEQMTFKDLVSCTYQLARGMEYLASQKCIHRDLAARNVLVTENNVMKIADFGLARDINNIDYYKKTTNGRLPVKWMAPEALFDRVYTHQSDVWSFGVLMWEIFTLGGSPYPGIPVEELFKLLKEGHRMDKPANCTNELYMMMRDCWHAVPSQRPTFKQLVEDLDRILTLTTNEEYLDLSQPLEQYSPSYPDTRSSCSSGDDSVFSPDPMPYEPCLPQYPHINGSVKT

Row | SMILES | IC50 [1, 3] | IC50 [2] | IC50 ([1]; SNU-16 cells)
1 | C=C(C)C(=O)Nc1ccc(-c2c(-c3ccc(C(=O)N[C@H]4C[C@H](F)C4)c(OC4CC4)c3)c3c(N)ncnc3n2C)cc1 [Example 978] | 250 to 1000 nM | 250 to 1000 nM | –
2 | CC(=O)C(=O)Nc1ccc(-c2c(-c3ccc(C(=O)N4CCc5ccccc54)cc3)c3c(N)ncnc3n2C)cc1 [Example 980] | ≤ 100 nM | < 100 nM | –
3 | C=C(C)C(=O)Nc1ccc(-c2c(-c3ccc(C(=O)NCC4CCC4)c(OC)n3)c3c(N)ncnc3n2C)cc1 [Example 983] | ≤ 100 nM | < 100 nM | –
4 | C=Cc1ncc(-c2ccc(-c3c(-c4ccc(Oc5nccc(C)n5)cc4)c4c(N)ncnc4n3C)cc2)s1 [Example 984] | ≤ 100 nM | < 100 nM | –
5 | C=CC(=O)N1CC=C(c2ccc(-c3c(-c4ccc(Oc5cccc(C)n5)cc4)c4c(N)ncnc4n3C)cc2)C1 [Example 989] | 250 to 1000 nM | 1000 to 100000 nM | –
6 | C=CC(=O)Nc1ccc(-c2c(-c3ccc(C(=O)NCC(C)C)cc3)c3c(N)ncnc3n2C)cc1 [Example 990] | ≤ 100 nM | < 100 nM | –
7 | C=C(C)C(=O)Nc1ccc(-c2c(C3=CC[C@H](C(=O)N4CCC[C@@H]4C)CC3)c3c(N)ncnc3n2C)cc1 [Example 991] | ≤ 100 nM | < 100 nM | –
8 | C=C(C)C(=O)Nc1ccc(-c2c(C3=CC[C@@H](C(=O)N4CCCC[C@H]4C)CC3)c3c(N)ncnc3n2C)cc1 [Example 992] | 100 to 250 nM | 1000 to 100000 nM | –
9 | C=C(C)C(=O)Nc1ccc(-c2c(C3=CC[C@@H](S(=O)(=O)N4CCCC4)CC3)c3c(N)ncnc3n2C)cc1 [Example 993] | ≤ 100 nM | < 100 nM | –
10 | C=C(C)C(=O)Nc1ccc(-c2c(C3=CC[C@H](C(=O)N4CCCC[C@H]4C)CC3)c3c(N)ncnc3n2C)cc1 [Example 994] | 100 to 250 nM | 1000 to 100000 nM | –
11 | C=C(C)C(=O)Nc1ccc(-c2c(C3=CC[C@H](S(=O)(=O)N4CCCC4)CC3)c3c(N)ncnc3n2C)cc1 [Example 995] | 250 to 1000 nM | 1000 to 100000 nM | –
12 | C=C(C)C(=O)Nc1ccc(-c2c(C3=CC[C@@H](C(=O)N4CC5CC4C5)CC3)c3c(N)ncnc3n2C)cc1 [Example 996] | 100 to 250 nM | 250 to 1000 nM | –
13 | C=C(C)C(=O)Nc1ccc(-c2c(C3=CC[C@H](C(=O)N4CC5CC4C5)CC3)c3c(N)ncnc3n2C)cc1 [Example 997] | 250 to 1000 nM | 1000 to 100000 nM | –
14 | C=C(C)C(=O)Nc1ccc(-c2c(C3=CC[C@@H](C(=O)N4CCCC45CCC5)CC3)c3c(N)ncnc3n2C)cc1 [Example 998] | ≤ 100 nM | < 100 nM | –
15 | C=C(C)C(=O)Nc1ccc(-c2c(C3=CC[C@H](C(=O)N4CCCC45CCC5)CC3)c3c(N)ncnc3n2C)cc1 [Example 999] | ≤ 100 nM | < 100 nM | –
16 | C#Cc1ncc(-c2c(-c3ccc(Oc4nccc(C)n4)cc3)c3c(N)ncnc3n2C)cn1 [Example 1000] | – | 1000 to 100000 nM | 250 to 1000 nM
17 | C=C(C)C(=O)Nc1ccc(-c2c(C3=CC[C@H](C(=O)N4CCCC4)CC3)c3c(N)ncnc3n2C)c(F)c1 [Example 1001] | ≤ 100 nM | < 100 nM | –
18 | C=C(C)C(=O)Nc1ccc(-c2c(C3=CC[C@@H](C(=O)N4CCCC4)CC3)c3c(N)ncnc3n2C)c(F)c1 [Example 1002] | ≤ 100 nM | < 100 nM | –
19 | C=C(C)C(=O)Nc1ccc(-c2c(C3=CC[C@@H](C(=O)N4CCC[C@@H]4C)CC3)c3c(N)ncnc3n2C)cc1 [Example 1003] | 100 to 250 nM | 250 to 1000 nM | –

Row | SMILES | IC50 [1, 3] | IC50 [2] | IC50 ([1]; SNU-16 cells)
20 | C=CC(=O)N1CCN(c2cccc(-c3c(-c4ccc(Oc5cccc(C)n5)cc4)c4c(N)ncnc4n3C)c2)CC1 [Example 1004] | ≤ 100 nM | < 100 nM | –
21 | C=CC(=O)NCc1cccc(-c2c(-c3ccc(Oc4cccc(C)n4)cc3)c3c(N)ncnc3n2C)c1 [Example 1005] | 100 to 250 nM | 250 to 1000 nM | –
22 | C=C(C)C(=O)Nc1ccc(-c2c(C3=CC[C@H](C(=O)N4CCC[C@H]4C)CC3)c3c(N)ncnc3n2C)cc1 [Example 1006] | 250 to 1000 nM | 250 to 1000 nM | –
23 | C#CCCCCn1c(-c2ccc(NC(=O)C(=C)C)cc2)c(-c2ccc(Oc3nccc(C)n3)c(F)c2)c2c(N)ncnc21 [Example 1007] | ≤ 100 nM | < 100 nM | –
24 | C=C(C)C(=O)Nc1ccc(-c2c(C3=CC[C@@H](C(=O)N4CCC[C@H]4C)CC3)c3c(N)ncnc3n2C)cc1 [Example 1008] | 100 to 250 nM | 100 to 250 nM | –
25 | C=C(C)C(=O)Nc1ccc(-c2c(C3=CC[C@@](C)(C(=O)N4CCCC4)CC3)c3c(N)ncnc3n2C)cc1 [Example 1009] | – | 1000 to 100000 nM | 250 to 1000 nM
26 | C=C(C)C(=O)Nc1nn(C)c(-c2c(-c3ccc(Oc4nccc(C)n4)cc3)c3c(N)ncnc3n2C)c1C [Example 1010] | 250 to 1000 nM | 1000 to 100000 nM | –
27 | C=C(C)C(=O)Nc1ccc(-c2c(C3=CC[C@@H](C(=O)N4CCCC45COC5)CC3)c3c(N)ncnc3n2C)c(F)c1 [Example 1011] | ≤ 100 nM | < 100 nM | –
28 | C=C(C)C(=O)Nc1ccc(-c2c(C3=CC[C@H](C(=O)N4CCCC45COC5)CC3)c3c(N)ncnc3n2C)c(F)c1 [Example 1012] | 100 to 250 nM | 250 to 1000 nM | –
29 | Cc1ccnc(Oc2ccc(-c3c(-c4ccc(NC(=O)/C=C/CN(C)C)cc4)n(C)c4ncnc(N)c34)cc2F)n1 [Example 1013] | ≤ 100 nM | < 100 nM | –
30 | C=C(C)C(=O)Nc1ccc(-c2c(C3=CC[C@H](C(=O)N4CCCC4)OC3)c3c(N)ncnc3n2C)cc1 [Example 1014] | ≤ 100 nM | < 100 nM | –
31 | C=C(C)C(=O)Nc1ccc(-c2c(C3=CC[C@@H](C(=O)N4CCCC4)OC3)c3c(N)ncnc3n2C)cc1 [Example 1015] | 1000 to 100000 nM | 1000 to 100000 nM | –
32 | C=C(C)C(=O)Nc1ccc(-c2c(C3=CC[C@@H](C(=O)N4CCCC4)CC3)c3c(N)ncnc3n2C)c(Cl)c1 [Example 1016] | 1000 to 100000 nM | 1000 to 100000 nM | –
33 | C=C(C)C(=O)Nc1ccc(-c2c(C3=CC[C@H](C(=O)N4CCCC4)CC3)c3c(N)ncnc3n2C)c(Cl)c1 [Example 1017] | ≤ 100 nM | < 100 nM | –
34 | C=CC(=O)Nc1cccc(-c2c(C3=CC[C@H](C(=O)N4CCCC4)CC3)c3c(N)ncnc3n2C)c1 [Example 1018] | ≤ 100 nM | < 100 nM | –
35 | C=CC(=O)Nc1cccc(-c2c(C3=CC[C@@H](C(=O)N4CCCC4)CC3)c3c(N)ncnc3n2C)c1 [Example 1019] | ≤ 100 nM | < 100 nM | –
36 | C=CC(=O)Nc1ccc(-c2c(-c3ccc(C(=O)NCC4(F)COC4)cc3)c3c(N)ncnc3n2C)cc1 [Example 1020] | ≤ 100 nM | 100 to 250 nM | –
37 | C=C(C)C(=O)Nc1cccc(-c2c(-c3ccc(C(=O)NCC4(F)COC4)cc3)c3c(N)ncnc3n2C)c1 [Example 1021] | ≤ 100 nM | < 100 nM | –
38 | C=C(C)C(=O)Nc1ccc(-c2c(C3=CC[C@@H](C(=O)NCC4(F)COC4)CC3)c3c(N)ncnc3n2C)cc1 [Example 1022] | 1000 to 100000 nM | 250 to 1000 nM | –

Row | SMILES | IC50 [1, 3] | IC50 [2] | IC50 ([1]; SNU-16 cells)
39 | C=C(C)C(=O)Nc1ccc(-c2c(C3=CC[C@H](C(=O)NCC4(F)COC4)CC3)c3c(N)ncnc3n2C)cc1 [Example 1023] | 1000 to 100000 nM | 1000 to 100000 nM | –
40 | C=C(C)C(=O)Nc1ccc(-c2c(C3=CC[C@](C)(C(=O)N4CCCC4)CC3)c3c(N)ncnc3n2C)cc1 [Example 1024] | – | 250 to 1000 nM | 250 to 1000 nM
41 | C=C(C)C(=O)Nc1ccc(-c2c(C3=CC[C@@](C)(C(=O)N4CCCC4)CC3)c3c(N)ncnc3n2C)cc1 [Example 1025] | – | 1000 to 100000 nM | 1000 to 100000 nM
42 | C=C(C)C(=O)Nc1ccc(-c2c(C3=CC[C@](C)(C(=O)N4CCCC4)CC3)c3c(N)ncnc3n2C)cc1 [Example 1026] | – | 1000 to 100000 nM | 1000 to 100000 nM
43 | C=CC(=O)Nc1cccc(-c2c(-c3ccc4c(c3)CCCN4C)c3c(N)ncnc3n2C)c1 [Example 1027] | 1000 to 100000 nM | 1000 to 100000 nM | –
44 | C=CC(=O)Nc1cccc(-c2c(-c3ccc(C(=O)NCC4(F)COC4)cc3)c3c(N)ncnc3n2C)c1 [Example 1030] | ≤ 100 nM | < 100 nM | –
45 | C=C(C)C(=O)Nc1ccc(-c2c(C3=CC[C@@H](C(=O)N4CC[C@@H]5C[C@@H]54)CC3)c3c(N)ncnc3n2C)cc1 [Example 1037] | 250 to 1000 nM | < 100 nM | –
46 | C#Cc1ccc(-c2c(-c3ccc(C(=O)N4CCCC4)cc3)c3c(N)ncnc3n2C)cn1 [Example 1040] | 250 to 1000 nM | 1000 to 100000 nM | –
47 | Cc1ccnc(Oc2ccc(-c3c(-c4ccc(NC(=O)/C=C/CN(C)C)cc4)n(C)c4ncnc(N)c34)cc2)n1 [Example 1041] | ≤ 100 nM | 100 to 250 nM | –
48 | C=C(CN(C)C)C(=O)Nc1ccc(-c2c(-c3ccc(C(=O)NCC4(F)COC4)cc3)c3c(N)ncnc3n2C)cc1 [Example 1044] | ≤ 100 nM | < 100 nM | –
49 | C=CC(=O)N1CCCc2c1nc(-c1c(-c3ccc(Oc4nccc(C)n4)cc3)c3c(N)ncnc3n1C)n2C [Example 1045] | 1000 to 100000 nM | 1000 to 100000 nM | –
50 | C=C(C)C(=O)Nc1ccc(-c2c(-c3ccc(C(=O)NCC4CCC4)c(OC)c3)c3c(N)ncnc3n2C)cc1 [Example 1046] | 1000 to 100000 nM | 1000 to 100000 nM | –
51 | C=C(C)C(=O)Nc1ccc(-c2c(C3=CCC(S(=O)(=O)C4CCCC4)CC3)c3c(N)ncnc3n2C)cc1 (stereo not drawn) [Example 1047] | 250 to 1000 nM | 250 to 1000 nM | –
52 | C=Cc1nc2ccc(-c3c(-c4ccc(Oc5nccc(C)n5)cc4)c4c(N)ncnc4n3C)cc2[nH]1 [Example 1048] | 100 to 250 nM | 250 to 1000 nM | –
53 | C=CC(=O)Nc1ccc(-c2c(-c3ccc(Oc4cccc(C)n4)cc3)c3c(N)ncnc3n2C)cc1 [Example 1050] | 250 to 1000 nM | 250 to 1000 nM | –
54 | C#Cc1ncc(-c2ccc(-c3c(-c4ccc(Oc5nccc(C)n5)cc4)c4c(N)ncnc4n3C)cc2)o1 [Example 1052] | 1000 to 100000 nM | 1000 to 100000 nM | –
55 | C=CC(=O)Nc1ccc(-c2c(-c3ccc(Oc4cccc(C)n4)c(F)c3)c3c(N)ncnc3n2C)cc1 [Example 1053] | 250 to 1000 nM | 100 to 250 nM | –
56 | C=CC(=O)Nc1ccc(-c2c(-c3ccc(Oc4nccc(C)n4)cc3)c3c(N)ncnc3n2C)c(Cl)c1 [Example 1054] | ≤ 100 nM | < 100 nM | –
57 | C=C(C)C(=O)Nc1ccc(-c2c(C3=CC[C@@H](C(=O)N4CCC[C@@H]4C4CC4)CC3)c3c(N)ncnc3n2C)cc1 [Example 1055] | ≤ 100 nM | < 100 nM | –
